# Measured values published in US11446279B2 (priority 2017, dated 2022).
# Like-named read-outs stand apart in the source and are kept apart here.
# Columns and labels:
# P. aeruginosa SFGH 266 = assay: MIC against P. aeruginosa SFGH 266; format: cell-based, Pseudomonas aeruginosa
# E. coli ATCC25922 = assay: MIC against E. coli ATCC25922; format: cell-based, Escherichia coli
# A. baumannii (Sensitive) = assay: MIC against A. baumannii (Sensitive); format: cell-based, Acinetobacter baumannii
# E. coli (KAN) = assay: microbe, parasite or virus in culture; format: cell-based, Escherichia coli
# E. coli (AMP) = assay: MIC against E. coli (AMP); format: cell-based, Escherichia coli
# A. baumannii (Resistant) = assay: MIC against A. baumannii (Resistant); format: cell-based, Acinetobacter baumannii
# MRSA = assay: MIC against MRSA; format: cell-based, Methicillin-resistant Staphylococcus aureus
# P. aeruginosa SFGH 427 = assay: MIC against P. aeruginosa SFGH 427; format: cell-based, Pseudomonas aeruginosa
# [1] = tested on: drug-resistant GNBs such as Pseudomonas aeruginosa, Escherichia coli, and Acinetobacter baumannii; assay: Growth inhibition of drug-resistant GNBs; format: cell-based; conditions: in words; E. coli species, A. baumannii, P. aeruginosa / gram-negative bacteria
# E. coli SFGH 207 = assay: MIC against E. coli SFGH 207; format: cell-based, Escherichia coli
# [2] = range stated jointly for MRSA and E. coli (ATCC 25922)
smiles,measurement,setting,value
"O=[N+]([O-])c1sccc1S(=O)(=O)F [compound 1, 2-nitrothiophene-3-sulfonyl fluoride]",MICs,P. aeruginosa SFGH 266,42 µg/mL
same,MICs,E. coli ATCC25922; E. coli ATCC25922,1.32 µg/mL
same,MIC,E. coli ATCC25922; [2],1 to 5 µg/mL
same,MICs,A. baumannii (Sensitive),21 µg/mL
same,MICs,E. coli (KAN); E. coli (KAN),0.66 µg/mL
same,MICs,E. coli (AMP),10.6 µg/mL
same,MICs,A. baumannii (Resistant),42 µg/mL
same,MICs,MRSA; MRSA,5.28 µg/mL
same,MIC,MRSA; [2],1 to 5 µg/mL
same,MICs,P. aeruginosa SFGH 427,84 µg/mL
same,antibacterial activity,[1],active
same,MICs,E. coli SFGH 207,42 µg/mL
"O=C1CN(/N=C/c2ccc([N+](=O)[O-])o2)C(=O)N1 [nitrofurantoin 7, nitrofurantoin, reference compound]",MIC,"P. aeruginosa SFGH 266; Pseudomonas aeruginosa, SFGH266",> 95 µg/mL
same,MIC,"E. coli ATCC25922; Escherichia coli, ATCC25922, range stated jointly for MRSA and E. coli (ATCC 25922), read-out: MIC",5 to 12 µg/mL
same,MIC,"E. coli ATCC25922; Escherichia coli, E. coli ATCC25922, read-out: MICs",3 µg/mL
same,MIC,A. baumannii (Sensitive); Acinetobacter baumannii,> 95 µg/mL
same,MIC,"E. coli (KAN); Escherichia coli, read-out: MICs",0.37 µg/mL
same,MIC,E. coli (AMP); Escherichia coli,6 µg/mL
same,MIC,A. baumannii (Resistant); Acinetobacter baumannii,> 95 µg/mL
same,MIC,"MRSA; Staphylococcus aureus, ATCC 25922 / MRSA, range stated jointly for MRSA and E. coli (ATCC 25922), read-out: MIC",5 to 12 µg/mL
same,MIC,"MRSA; Staphylococcus aureus, MRSA, read-out: MICs",12 µg/mL
same,MIC,"P. aeruginosa SFGH 427; Pseudomonas aeruginosa, SFGH427",> 95 µg/mL
same,MIC,"E. coli SFGH 207; Escherichia coli, SFGH207",6 µg/mL
